The test system of data set [1] is Tumour Necrosis Factor-α (TNF-α). The data set can be described thus: Inhibition of TNF-α production by LPS-activated THP-1 cells (sandwich ELISA). The format is cell-based, human. Particulars: 18 hours. The text has this: (§1) (a) Compounds A and B were identified from a bark sample of Aglaia leptantha through their ability to inhibit production of Tumour Necrosis Factor-α (TNF-α) by THP-1 human promonocytic leukemia cells (Tsuchiya, et al, Int. J. Cancer, 1980, 26(2):171-6) activated with lipopolysaccharide (LPS). Table 4 summarises the results comparing the activity of Compounds A and B for inhibition of TNF-α production to their effects on general cell metabolism measured using WST-1 reduction, DNA synthesis and protein synthesis assays for THP-1 cells. […] For comparison, the effects of Compounds A and B on A549 lung epithelial carcinoma cells (Leiber et al, Int. J. Cancer, 1976, 17(1)-62-70) were also measured and the data is also included in Table 4.
Background: An ELISA detects its analyte on a solid surface through an enzyme-linked reagent.

The test system of data set [2] is THP-1 cells. Description: WST-1 reduction by THP-1 cells. The format is cell-based, human.
Description: as §1
(In general: Formazan colour is commonly taken as a measure of viable cells.)

Data set [3] concerns THP-1 cells. Description: Protein synthesis, [14C]-leucine uptake, THP-1 cells. To be noted: 48 hours. The format is cell-based, human.
Description: as §1

Data set [4] relates to THP-1 cells. The data set can be described thus: DNA synthesis, [14C]-thymidine uptake, THP-1 cells. The format is cell-based, human. To be noted: 48 hours.
Description: as §1

Data set [5] deals with Intercellular Adhesion Molecule-1 (ICAM-1). Description: IL-1-induced ICAM-1 surface expression by A549 cells (Delfia). The class given is cell-based, human. Particulars: 24 hours, read-out: IC50 ICAM-1 Production.
Description: as §1

Data set [6] has as its system A549 cells. Description: Protein synthesis, [14C]-leucine uptake, A549 cells. The class given is cell-based, human. Particulars: 72 hours.
Description: as §1

The test system of data set [7] is A549 cells. The data set can be described thus: DNA synthesis, [14C]-thymidine uptake, A549 cells. To be noted: 72 hours. The format is cell-based, human.
Description: as §1

Data set [8] has as its system A549. Description: Cytotoxic activity, sub-diploid DNA content by flow cytometry (propidium iodide). Particulars: A549, 6 days; read-out: LC50 (6 day cultures). The class given is cell-based, human. On the procedure:
(§2) (b) Compound A was assessed for cytotoxic and cytostatic activity against a panel of cell lines derived from a variety of human tumour types in addition to THP-1 and A549 cells (Table 5). These included K562 leukemic cells (Lozzio and Lozzio, 1975, Blood 45:321-34), PC3 prostate tumour cells (Kaighn et al., 1979, Invest. Urol. 17:16-23) and SF268 glioblastoma cells (Westphal et al, 1985, Biochem. Biophys. Res. Commun., 132:284-9). […] However, the cytotoxic potency of Compound A increased dramatically after 6 days of culture for the K562, A549 and SF268 cells.
(In general: In flow cytometry, cells or beads pass a laser one at a time.)

The subject of a further data set is K562. The data set is described as above. The class given is cell-based, human. To be noted: K562, 6 days; read-out: LC50 (6 day cultures). On the procedure: as §2
The next data set deals with PC3. Described as above. The class given is cell-based, human. Particulars: PC3, 6 days; read-out: LC50 (6 day cultures). The method, then: as §2
The subject of a further data set is SF268. The data set is described as above. The format is cell-based, human. Particulars: SF268, 6 days; read-out: LC50 (6 day cultures). The method, then:
as §2

The next data set has as its system THP-1. The data set is described as above. The class given is cell-based, human. Particulars: THP-1, 6 days; read-out: LC50 (6 day cultures). The method, then:
as §2

The test system of another data set is K562 leukemic cells. The data set can be described thus: DNA content analysis (cell cycle) of K562 leukemic cells. The class given is cell-based, human. Particulars: K562, 10-15 nM, 3 days. The method, then:
K562 cells were cultured for 3 days with the indicated concentration of Compounds A or B then collected and fixed in 70% ethanol prior to staining with propidium iodide and DNA content determined by flow cytometry. The numbers indicate the % of cells in G0/G1, S and G2/M phases of the cell cycle respectively relative to all cells with ≧2N DNA content.

In data set [9] the test system is A549. The data set can be described thus: Cytostatic activity, relative cell number by YOYO-1 DNA dye. The class given is cell-based, human. Particulars: Homo sapiens, 72 h; A549, lung; read-out: GI50 (3 day cultures). The method, then:
as §2

In data set [10] the test system is A549 cells. Description: Cell death as loss of membrane integrity, YOYO-1 uptake. The class given is cell-based. Particulars: Homo sapiens, A549, 72 h, read-out: LC50. From the text:
(§3) (a) Table 8 compares the cytostatic and cytotoxic effects of Compound A to three previously identified 1H-cyclopenta[b]benzofuran lignans that lack the dioxanyloxy group at the C6-position. The reference compounds are: Rocaglaol (Reference Compound 1) (Ohse et al., J Nat Prod, 1996, 59(7):650-52); 4′-Demethoxy-3′,4′-methylenedioxyrocaglaol (Reference Compound 2) and Methyl 4′-demethoxy-3′,4′-methylenedioxyrocaglate (Reference Compound 3) (Lee et al., Chem Biol Interact, 1998, 115(3):215-28).

The test system of data set [11] is THP-1 cells. The data set is described as above. To be noted: Homo sapiens, THP-1, 72 h, read-out: LC50. The format is cell-based.
Description: as §3

Data set [12] relates to A549 cells. Description: Effect on cell cycle arrest and cell death induced by anti-cancer agents, DNA content analysis. The class given is cell-based. To be noted: 3 days. The method, then: A549 cells in 6 well plates were cultured for 3 days in the presence or absence of 10 nM Compound A together with 0.1 μM camptothecin, 10 μM vinblastin, 1 μM paclitaxel or 1 μM staurosporine as indicated. The cells were then collected and fixed in 70% ethanol prior to staining with propidium iodide and DNA content determined by flow cytometry. The numbers indicate the % of cells in the various cell cycle phases relative to all cells with ≧2N DNA content and also the % dead cells (ie. subdiploid ≦2N cells) to the left of the dotted marker that arose during the culture period.
This was examined in more detail using DNA content analysis to specifically measure cell cycle progression and cell death. In this experiment in addition to camptothecin and paclitaxel cells were also treated with vinblastin (another microtubule inhibitor) (Sorger et al., 1997, supra) and staurosporine (a kinase inhibitor) (Gescher, Crit Rev Oncol Hematol., 2000, 34(2):127-35).

The subject of data set [13] is A549 cells. Description: Senescence-associated β-galactosidase (SA-β-gal) activity staining. The class given is cell-based, human. To be noted: A549, 250 nM doxorubicin, 10 days. The method, then: A549 cells were seeded at 10,000 cell/well in 6 well plates in the presence or absence of varying concentrations of Compound A (10-50 nM) or 250 nM doxorubicin for 10 days prior to their processing and staining overnight for senescence-associated β-galactosidase activity as described previously (Dimri et al., 1995, Proc Natl Acad Sci USA 1995 92(20):9363-7). […] PC, phase contrast microscopy. BF, bright field microscopy Magnification×200.
This was evaluated further by measuring senescence-associated β-galactosidase (SA-β-gal) activity, a biomarker previously described to correlate well with senescence of human cells (Dimri et al., Proc Natl Acad Sci USA 1995 92(20):9363-7). […] Therefore, in addition to Compound A A549 cells were also treated with doxorubicin as an experimental control.

For data set [14], the system named is THP-1 cells. The data set can be described thus: DNA content analysis (cell cycle and viability) of THP-1 cells. The format is cell-based, human. To be noted: THP-1, 1000 nM paclitaxel, 2 days. On the procedure: THP-1 cells were cultured for 2 days with the indicated concentration of Compound A or 1000 nM paclitaxel then collected and fixed in 70% ethanol prior to staining with propidium iodide and DNA content determined by flow cytometry. The numbers indicate the % of cells in the various cell cycle phases relative to all cells with ≧2N DNA content and also the % dead cells (ie. subdiploid≦2N cells) to the left of the marker (the vertical line) that arose during the culture period.

[15] abbreviates: THP-1 leukemic cells, cultured with compound for 3 days, read-out: IC50 (reduction of WST-1).

Results on 10 molecules are retold here after US6710075B2, “Therapeutic compounds and methods” (The Government of the State of Sarawak, Malaysia, priority 2000, dated 2004).

For the molecule `COC(=O)[C@H]1[C@@H](O)[C@@]2(O)c3c(OC)cc(OC4OC(C(O)CO)COC4OC)cc3O[C@@]2(c2ccc(OC)cc2)[C@@H]1c1ccccc1` (single isomer, unassigned) [Compound B], the IC50 (in general, the concentration that gives 50% inhibition) in [1] is 15 nM; in the data set with THP-1 cells [2] (THP-1 cells, 18 hours of culture, read-out: IC50 WST-1 Reduction) it was 40 nM; in the data set on THP-1 cells [2] (setting [15]), 1.5 nM; in the data set on THP-1 cells [3], 3 nM; in the data set on THP-1 cells [4], 3 nM; in data set [5], 5000 nM. Besides, the IC50 in the data set on A549 cells [6] was found to be 10 nM; with A549 cells [7], 4 nM. Also, the CC50 turned out to be 12 nM in the data set on A549 [8]; 15 nM in the data set on K562; 12 nM in the data set with PC3; 22 nM with SF268; 15 nM in the data set on THP-1. In addition, in the data set with K562 leukemic cells, the “cell cycle phase accumulation” value is “characteristic accumulation of cells in G2/M phases of the cell cycle”.

Regarding `COC(=O)[C@H]1[C@@H](O)[C@@]2(O)c3c(OC)cc(OC4OC(C(COC(C)=O)OC(C)=O)COC4OC)cc3O[C@@]2(c2ccc(OC)cc2)[C@@H]1c1ccccc1` (stereo partly drawn) [Compound A′], the IC50 with THP-1 cells [2] (setting [15]) is 0.3 nM.

With `COC(=O)[C@H]1[C@@H](O)[C@@]2(O)c3c(OC)cc(OC4OC(C(COC(C)=O)OC(C)=O)COC4OC)cc3O[C@@]2(c2ccc(OC)cc2)[C@@H]1c1ccccc1` (stereo partly drawn) [Compound B′], the IC50 in the data set with THP-1 cells [2] (setting [15]) was found to be 0.7 nM.

Regarding `COc1ccc(C23Oc4cc(OC)cc(OC)c4C2(O)C(O)CC3c2ccccc2)cc1` (stereo not drawn) [Reference Compound 1, Rocaglaol], the GI50 (in general, the concentration at which growth is held to half of that of the control) in the data set with A549 [9] was 3980 nM. Also, the CC50 with A549 cells [10] and in the data set with THP-1 cells [11] was greater than 5000 nM in each case.

In the case of `COc1cc(OC)c2c(c1)OC1(c3ccc4c(c3)OCO4)C(c3ccccc3)CC(O)C21O` (stereo not drawn) [Reference Compound 2, 4′-Demethoxy-3′,4′-methylenedioxyrocaglaol], the GI50 with A549 [9] worked out at 389 nM. The CC50 with A549 cells [10] and in the data set on THP-1 cells [11] was greater than 5000 nM each time.

For `COC(=O)C1C(O)C2(O)c3c(OC)cc(OC)cc3OC2(c2ccc3c(c2)OCO3)C1c1ccccc1` (stereo not drawn) [Reference Compound 3, Methyl 4′-demethoxy-3′,4′-methylenedioxyrocaglate], the GI50 in the data set on A549 [9] came out at 56 nM. Also, the CC50 in the data set on A549 cells [10] and with THP-1 cells [11] was greater than 5000 nM in each case.

Take `CC[C@@]1(O)C(=O)OCc2c1cc1n(c2=O)Cc2cc3ccccc3nc2-1` [camptothecin, reference compound]: the “cell cycle phase accumulation” value in the data set with A549 cells [12] (A549, 0.1 μM camptothecin) is “accumulation of cells in S phase of the cell cycle”.

On to `COc1cccc2c1C(=O)c1c(O)c3c(c(O)c1C2=O)C[C@@](O)(C(=O)CO)C[C@@H]3O[C@H]1C[C@H](N)[C@H](O)[C@H](C)O1` [doxorubicin, reference compound], for which the SA-β-gal activity entry in the data set with A549 cells [13] is “exhibited SA-β-gal activity”.

Take `CC(=O)O[C@H]1C(=O)[C@@]2(C)[C@H]([C@H](OC(=O)c3ccccc3)[C@]3(O)C[C@H](OC(=O)[C@H](O)[C@@H](NC(=O)c4ccccc4)c4ccccc4)C(C)=C1C3(C)C)[C@]1(OC(C)=O)CO[C@@H]1C[C@@H]2O` [paclitaxel, reference compound]: the “cell cycle phase accumulation” value is reported as “caused cells to accumulate in the G2/M phases of the cell cycle” in the data set on THP-1 cells [14] and “majority of cells arresting in the G2/M phases of the cell cycle” with A549 cells [12] (A549, 1 μM paclitaxel).

As to `CC[C@]1(O)C[C@@H]2CN(CCc3c([nH]c4ccccc34)[C@@](C(=O)OC)(c3cc4c(cc3OC)N(C)[C@H]3[C@@](O)(C(=O)OC)[C@H](OC(C)=O)[C@]5(CC)C=CCN6CC[C@]43[C@@H]65)C2)C1` [vinblastin, reference compound], in the data set on A549 cells [12] (A549, 10 μM vinblastin), the “cell cycle phase accumulation” value is reported as “majority of cells arresting in the G2/M phases of the cell cycle”.
